US11040040B2, “Methods of treating cancer” (Corvus Pharmaceuticals, Inc., priority 2017, dated 2021)

Assays:
[1] = Phase 1/1b clinical trial, safety and tolerability (Step 1); assay type: in vivo, human; settings: 48 patients treated in Step 1
From the text: FIG. 5 is an illustration of an exemplary Phase 1/1B clinical trial design.
Expansion cohorts include renal cell and non-small cell lung cancer
FIG. 12 provides a summary of data regarding treatment-related adverse events.
(§1) Adenosine signaling via A2A receptor (A2AR) on immune cells suppresses anti-tumor immunity and limits the efficacy of immunotherapy, chemotherapy, CAR-T, and vaccines. […] In embodiments, CD73 expression, CD8 infiltration, TREG distribution, and gene expression signatures are evaluated in serial tumor biopsy specimens.

[2] = system: non-small cell lung, melanoma, renal, triple negative breast, and other (bladder, prostate, head and neck, colorectal) tumors; assay: Phase 1/1b clinical trial, clinical activity / tumor regression; assay type: in vivo, human; settings: single agent
Method: The waterfall plot includes all subjects from the clinical trial with available data, including all dosing levels and disease indications. CT scans of target lesions were performed prior to treatment and every 8 weeks post-treatment or at optimal time points. Target lesions were measured and the sum of longest dimensions (SLD) calculated. Subjects with regression of target tumor lesions are enriched for CD8 infiltration of tumors at baseline. […] The best change in SLD for each subject is shown in the waterfall plot colored by the percentage of CD8 infiltration in the center of the pre-treatment biopsy sample as measured by immunohistochemistry. […] A cutoff of 1% (rather than 4% for FIG. 1A) was used to classify subjects enriched for CD8 infiltration.
There were five prior regimens including TKIs, mTOR inhibitor and nivolumab. The patient ultimately failed each prior therapy.
as §1

adenosine signaling = assay: Functional inhibition of adenosine signaling in cancer patients; assay type: in vivo, human
Method: as §1

[3] = system: peripheral T cell receptor repertoire; assay: Deep sequencing of TCRb in PBMCs, Morisita Index and clonality; assay type: in vivo, human; settings: subjects with baseline peripheral blood clonality within normal healthy range (<0.2); PBMCs day 0 vs day 28 to 56
Method: FIGS. 3A-3C: Peripheral blood mononuclear cells (PBMCs) were collected at day 0 and between day 28 and 56. Deep sequencing of TCRb and Moristia and clonality calculations were performed by Adaptive Biotechnologies (Seattle, Wash., USA). T cell receptor (TCR) repertoire clonality was assessed.
Clonality is a measure of the dominance of specific T cell clones within a sample. It can range from 0-1, with 0 meaning each clone appears only once and 1 meaning the sample has only copies of a single clone. […] Clonality<0.2 is within the normal range, >0.2 means that a few clones dominate the sample. Clonality is conceptually the opposite of diversity. A clonality<0.2 is diverse because there a lot of different clones and the sample is not dominated by one or a few clone.
A Morisita Index score indicates the similarity between two samples. […] The Morisita Index can range from 0-1, with 0 meaning the samples are completely different (no shared clones) and a score of 1 meaning the samples are the same. In embodiments, a Morisita Index score>0.9 means very little change (e.g., within the range of sample to sample variation), while a Morisita Index score<0.9 means there was a change within the sample.

syngeneic tumor models = assay: Syngeneic tumor models in mice, daily treatment; assay type: in vivo; settings: multiple syngeneic tumor models
Method: as §1

**Q.** Which results are given for `Cc1ccc(-c2nc(N)nc3c2nnn3Cc2cccc(COC3CCOC3)n2)o1` (stereo not shown) [CPI-444]?
**A.** Grade 3 or 4 treatment related adverse events [1]: 1; tolerability [1]: well tolerated; clinical activity ([2]; including patients who previously failed anti-PD-1 therapy): Evidence of clinical activity; tumor response (FIG. 6, FIGS. 7A-7B) ([2]; nivolumab refractory renal cancer, five prior regimens including TKIs, mTOR inhibitor and nivolumab): tumor regression; inhibition of adenosine signaling (adenosine signaling): functional inhibition of adenosine signaling; Morisita Index (change in peripheral TCR repertoire) [3]: < 0.9; inhibition of tumor growth (syngeneic tumor models): dose-dependent inhibition of tumor growth
